Measured values as given in US20110245280A1, “FRUGICIDAL MIXTURES BASED ON TRIAZOLES” (BASF AKTIENGESELLSCHAFT, priority 2002, published 2011).

Tested on: mildew of wheat (Erysiphe [syn. Blumeria] graminis form a specialis tritici)
Assay: Activity against mildew of wheat, protective spray on potted wheat seedlings (cultivar Kanzler), greenhouse
Assay type: in vivo
Conditions: wheat leaves, 7 days after inoculation
Protocol: The active compounds, separately or together, were formulated as a 10% emulsion in a mixture of 63% by weight of cyclohexanone and 27% by weight of emulsifier, and diluted with water to the desired concentration.
Evaluation was carried out by determining the infected leaf areas in percent. These percentages were converted into efficacies. The efficacy (W) was calculated as follows using Abbot's formula:
[formula] • α corresponds to the fungal infection of the treated plants in % and • β corresponds to the fungal infection of the untreated (control) plants in %
An efficacy of 0 means that the infection level of the treated plants corresponds to that of the untreated control plants; an efficacy of 100 means that the treated plants were not infected.
The expected efficacies of the mixtures of the active compounds were determined using Colby's formula [R. S. Colby, Weeds 15, 20-22 (1967)] and compared with the observed efficacies.
Colby's formula: E=x+y−x·y/100 • E expected efficacy, expressed in % of the untreated control, when using the mixture of the active compounds A and B at the concentrations a and b • x efficacy, expressed in % of the untreated control, when using active compound A at a concentration of a • y efficacy, expressed in % of the untreated control, when using active compound B at a concentration of b.
Leaves of wheat seedlings of the cultivar “Kanzler” grown in pots were sprayed to run-off point with an aqueous suspension having the concentration of active compounds stated below. The suspension or emulsion was prepared from a stock solution made using 10% of active compound in a mixture comprising 70% of cyclohexanone, 20% of wetting agent and 10% of emulsifier. 24 hours after the spraycoating had dried on, the leaves dusted with spores of mildew of wheat (Erysiphe [syn. Blumeria] graminis form a specialis tritici). The test plants were then placed in a greenhouse at 20-24° C. and 60-90% relative atmospheric humidity.
After 7 days, the extent of the development of the mildew was determined visually in % infection of the entire leaf area.
The visually determined values for the percentage of diseased leaf area were converted into efficacies in % of the untreated control. An efficacy of 0 means the same disease level as in the untreated control, an efficacy of 100 means a disease level of 0%. The expected efficacies for the active compound combinations were determined using Colby's formula mentioned above and compared with the observed efficacies.

[1] = 0.06 ppm active compound in the spray liquor
[2] = 0.25 ppm active compound in the spray liquor
[3] = 1 ppm active compound in the spray liquor
[4] = 4 ppm active compound in the spray liquor

Structure (SMILES) | Efficacy in % of the untreated control (0.015 ppm active compound in the spray liquor) | Efficacy in % of the untreated control [1] | Efficacy in % of the untreated control [2] | Efficacy in % of the untreated control [3] | Efficacy in % of the untreated control [4]
OC(Cc1ccccc1Cl)(Cn1nc[nH]c1=S)C1(Cl)CC1 (stereo not drawn) [Compound I, 2-[2-(1-chlorocyclopropyl)-3-(2-chlorophenyl)-2-hydroxypropyl]-2,4-dihydro-[1,2,4]-triazole-3-thione] | 0% | 0% | 0% | 0% | 56%
Fc1ccc(C2(Cn3cncn3)OC2c2ccccc2Cl)cc1 (stereo not drawn) [Compound II, epoxiconazole] | – | 11% | 33% | 44% | –
CC1(C)CCC(Cc2ccc(Cl)cc2)C1(O)Cn1cncn1 (stereo not drawn) [Compound III, metconazole] | – | – | 11% | – | –
CCCCC(C#N)(Cn1cncn1)c1ccc(Cl)cc1 (stereo not drawn) [Compound XIII, myclobutanil] | – | 0% | – | 11% | 56%
